Legend:
Type in all cases: in vivo
[1] = tested on: green peach aphid (Myzus persicae); assay: Test H: foliar movement of compound through the plant, green peach aphid mortality (radish); settings: applied at 1000 ppm, 20 microliters by pipet to two leaves of radish plant; infested after 2 days, held 8 additional days; insects fed on untreated plant tissues
Description: (§1) For evaluating movement of compounds in plants and control of green peach aphid (Myzus persicae) and potato leafhopper (Empoasca fabae) after foliar movement of compound through the plant, the test unit consisted of a small open container with a 12-15-day-old radish plant (for green peach aphid test) or 5-6 day old Longio bean plant (for potato leafhopper test).
(§2) Test compounds were formulated using a solution containing 10% acetone, 90% water and 600 ppm X-77® Spreader Lo-Foam Formula non-ionic surfactant containing alkylarylpolyoxyethylene, free fatty acids, glycols and isopropanol (Loveland Industries, Inc.). The formulated compounds were applied in 20 microliters by pipet to two larger photosynthetically active leaves. All experimental compounds in this screen were applied at 1000 ppm, and the tests were replicated three times. After applying the formulated test compounds, the soil of each test unit was covered with a layer of sand and each test unit was allowed to dry for 1 hr and then a black, screened cap was placed on top. The test units were held in a growth chamber at about 20° C. and 50-70% relative humidity.
(§3) After 2 days, the treated leaves were covered on all sides with a fine plastic mesh, but with the leaf petiole intact and still attached to the plant to allow normal vascular movement and photosynthesis. The plants were then infested with 20-30 aphids (radish) or 20 leafhoppers (bean) and held in the growth chamber for 8 additional days. Each test unit was then visually assessed for mortality of the insects, which had contacted and fed on the untreated plant tissues.

[2] = tested on: potato leafhopper (Empoasca fabae); assay: Test H: foliar movement of compound through the plant, potato leafhopper mortality (bean); settings: applied at 1000 ppm, 20 microliters by pipet to two leaves of bean plant; infested after 2 days, held 8 additional days; insects fed on untreated plant tissues
Description: as §1, §2, §3

[3] = tested on: green peach aphid (Myzus persicae); assay: Test C: control of green peach aphid through contact and/or systemic means, spray on radish; settings: 144 h
Description: For evaluating control of green peach aphid (Myzus persicae) through contact and/or systemic means, the test unit consisted of a small open container with a 12-15-day-old radish plant inside. This was pre-infested by placing on a leaf of the test plant 30-40 aphids on a piece of leaf excised from a culture plant (cut-leaf method). The larvae moved onto the test plant as the leaf piece desiccated. After pre-infestation, the soil of the test unit was covered with a layer of sand.
Test compounds were formulated using a solution containing 10% acetone, 90% water and 300 ppm X-77® Spreader Lo-Foam Formula non-ionic surfactant containing alkylarylpolyoxyethylene, free fatty acids, glycols and isopropanol (Loveland Industries, Inc.). The formulated compounds were applied in 1 mL of liquid through a SUJ2 atomizer nozzle with ⅛ JJ custom body (Spraying Systems Co.) positioned 1.27 cm (0.5 inches) above the top of each test unit. All experimental compounds in this screen were sprayed at 250 ppm, replicated three times. After spraying of the formulated test compound, each test unit was allowed to dry for 1 hour and then a black, screened cap was placed on top. The test units were held for 6 days in a growth chamber at 19-21° C. and 50-70% relative humidity. Each test unit was then visually assessed for insect mortality.

[4] = tested on: potato leafhopper (Empoasca fabae); assay: Test 1 (I): xylem movement from soil application, potato leafhopper mortality (bean); settings: for % PLH M (potato leafhopper mortality): 1000 ppm, 1 mL to soil at base of bean plant, infested after 2 days, held 5 additional days
Description: (§4) For evaluating movement of compounds in plants and control of green peach aphid (Myzus persicae) and potato leafhopper (Empoasca fabae) after xylem movement of compound from soil application up through roots into foliage, the test unit consisted of a small open container with a 12-15-day-old radish plant (for green peach aphid test) or 5-6-day-old Longio bean plant (for potato leafhopper test).
as §2, with “in 1 mL of solution” for “in 20 microliters”, “to the soil at the base of the plant.” for “to two larger photosynthetically active leaves.”, “compounds, each test unit was allowed to dry for 1 h. The” for “compounds, the”, “sand” for “sand and each test unit was allowed to dry for 1 hr”
(§5) After 2 days, the plants were then infested with 20-30 aphids (radish) or 20 leafhoppers (bean) and held in the growth chamber for 5 additional days. Each test unit was then visually assessed for mortality of the insects, which had contacted and fed on the untreated plant foliage.

[5] = tested on: green peach aphid (Myzus persicae); assay: Test 1 (I): xylem movement from soil application, green peach aphid mortality (radish); settings: for % GPA M (green peach aphid mortality): 1000 ppm, 1 mL to soil at base of radish plant, infested after 2 days, held 5 additional days
Description: as §4
as §2, with “in 1 mL of solution” for “in 20 microliters”, “to the soil at the base of the plant.” for “to two larger photosynthetically active leaves.”, “compounds, each test unit was allowed to dry for 1 h. The” for “compounds, the”, “sand” for “sand and each test unit was allowed to dry for 1 hr”
as §5

[6] = tested on: corn planthopper (Peregrinus maidis); assay: Test F: control of corn planthopper through contact and/or systemic means, spray on corn; settings: 144 h
Description: For evaluating control of corn planthopper (Peregrinus maidis) through contact and/or systemic means, the test unit consisted of a small open container with a 3-4 day old corn (maize) plant (spike) inside. White sand was added to the top of the soil prior to application. Test compounds were formulated and sprayed at 250 ppm and replicated three times as described for Test C. After spraying, the test units were allowed to dry for 1 hour before they were post-infested with 10-20 corn planthoppers (18- to 20-day old nymphs) by sprinkling them onto the sand with a salt shaker. A black, screened cap was placed on the top of the cylinder. The test units were held for 6 days in a growth chamber at 19-21° C. and 50-70% relative humidity. Each test unit was then visually assessed for insect mortality.

[7] = tested on: cotton melon aphid (Aphis gossypii); assay: Test E: control of cotton melon aphid through contact and/or systemic means, spray on cotton; settings: 144 h
Description: For evaluating control of cotton melon aphid (Aphis gossypii) through contact and/or systemic means, the test unit consisted of a small open container with a 6-7-day-old cotton plant inside. This was pre-infested with 30-40 insects on a piece of leaf according to the cut-leaf method described for Test C, and the soil of the test unit was covered with a layer of sand.
Test compounds were formulated and sprayed at 250 ppm as described for Test D. The applications were replicated three times. After spraying, the test units were maintained in a growth chamber and then visually rated as described for Test D.

[8] = tested on: potato leafhopper (Empoasca fabae Harris); assay: Test D: control of potato leafhopper through contact and/or systemic means, spray on bean plant; settings: 144 h
Description: For evaluating control of potato leafhopper (Empoasca fabae Harris) through contact and/or systemic means, the test unit consisted of a small open container with a 5-6 day old Longio bean plant (primary leaves emerged) inside. White sand was added to the top of the soil and one of the primary leaves was excised prior to application. Test compounds were formulated and sprayed at 250 ppm and replicated three times as described for Test C. After spraying, the test units were allowed to dry for 1 hour before they were post-infested with 5 potato leafhoppers (18 to 21 day old adults). A black, screened cap was placed on the top of the cylinder. The test units were held for 6 days in a growth chamber at 19-21° C. and 50-70% relative humidity. Each test unit was then visually assessed for insect mortality.

Structure (SMILES)	% GPA M (green peach aphid mortality) [1] [%]	% PLH M (potato leafhopper mortality) [2] [%]	% PLH M (potato leafhopper mortality) [4] [%]	% GPA M (green peach aphid mortality) [5] [%]	also measured
Cc1cc(C#N)cc(C(N)=O)c1NC(=O)c1cc(C(F)(F)F)nn1-c1ncccc1Cl [Compound 1]	87	58			mortality at 250 ppm [3]: ≥ 80%; mortality at 1000 ppm ([4]; Empoasca fabae, soil, read-out: % PLH M (potato leafhopper mortality)): 100%; mortality at 1000 ppm ([5]; Myzus persicae, soil, read-out: % GPA M (green peach aphid mortality)): 64%; mortality at 250 ppm [6]: ≥ 80%; mortality at 250 ppm [7]: ≥ 80%; mortality at 250 ppm [8]: ≥ 80%
CNC(=O)c1cc(C#N)cc(C)c1NC(=O)c1cc(C(F)(F)F)nn1-c1ncccc1Cl [Compound 2]			56	64	
CNC(=O)c1cc(C#N)cc(C)c1NC(=O)c1cc(Cl)nn1-c1ncccc1Cl [Compound 3]	81	96			
Cc1cc(C#N)cc(C(N)=O)c1NC(=O)c1cc(Cl)nn1-c1ncccc1Cl [Compound 4]	78	93			
CNC(=O)c1cc(C#N)cc(C)c1NC(=O)c1cc(Br)nn1-c1ncccc1Cl [Compound 5]	94	96	95	40	
Cc1cc(C#N)cc(C(N)=O)c1NC(=O)c1cc(Br)nn1-c1ncccc1Cl [Compound 6]	100	77	100	59	
Cc1cc(C#N)cc(C(=O)NCC#N)c1NC(=O)c1cc(Cl)nn1-c1ncccc1Cl [Compound 26]	67	73			
Cc1cc(C#N)cc(C(=O)NCC#N)c1NC(=O)c1cc(Br)nn1-c1ncccc1Cl [Compound 27]	57	13			

From patent US7875634B2, “Cyano anthranilamide insecticides” (E. I. du Pont de Nemours and Company, priority 2003, dated 2011)
